Several values for one entry are separate records, joined by “and”; a condition that tells them apart may be missing. Equal entries are not always repeated. Toxic doses and inconclusive results are not listed.
System: P388 leukemia ip, CD2F1 mice, survival T/C
Assay: NCI In Vivo Anticancer Drug Screen. Data for tumor model P388 Leukemia (intraperitoneal) in CD2F1 (CDF1) mice
Conditions: endpoint: median survival time, higher = longer survival
Method in brief: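 Mice carrying the transplanted tumor received test compound or vehicle. Survival was recorded in each group, and the value is the treated-group measurement divided by that of the vehicle-treated control group.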

[1] = dose: 25.0 mg/kg/injection, schedule: Q01DX009 (ip), vehicle: saline with Tween-80
[2] = dose: 50.0 mg/kg/injection, schedule: Q01DX009 (ip), vehicle: saline with Tween-80
[3] = dose: 50.0 mg/kg/injection, schedule: Q01DX009 (ip), vehicle: suspension in saline
[4] = dose: 100.0 mg/kg/injection, schedule: Q01DX009 (ip), vehicle: saline with Tween-80
[5] = dose: 100.0 mg/kg/injection, schedule: Q01DX009 (ip), vehicle: suspension in saline
[6] = dose: 200.0 mg/kg/injection, schedule: Q01DX009 (ip), vehicle: suspension in saline
[7] = dose: 60.0 mg/kg/injection, schedule: Q01DX005 (ip), vehicle: Klucel (hydroxypropylcellulose) (HPC)
[8] = dose: 120.0 mg/kg/injection, schedule: Q01DX005 (ip), vehicle: Klucel (hydroxypropylcellulose) (HPC)
[9] = dose: 240.0 mg/kg/injection, schedule: Q01DX005 (ip), vehicle: Klucel (hydroxypropylcellulose) (HPC)
[10] = dose: 100.0 mg/kg/injection, schedule: Q04DX003 (ip), vehicle: Klucel (hydroxypropylcellulose) (HPC)
[11] = dose: 200.0 mg/kg/injection, schedule: Q04DX003 (ip), vehicle: Klucel (hydroxypropylcellulose) (HPC)
[12] = dose: 400.0 mg/kg/injection, schedule: Q04DX003 (ip), vehicle: Klucel (hydroxypropylcellulose) (HPC)
[13] = dose: 100.0 mg/kg/injection, schedule: Q01DX001 (ip), vehicle: Klucel (hydroxypropylcellulose) (HPC)
[14] = dose: 200.0 mg/kg/injection, schedule: Q01DX001 (ip), vehicle: Klucel (hydroxypropylcellulose) (HPC)
[15] = dose: 400.0 mg/kg/injection, schedule: Q01DX001 (ip), vehicle: Klucel (hydroxypropylcellulose) (HPC)
[16] = dose: 50.0 mg/kg/injection, schedule: Q01DX009 (ip), vehicle: Klucel (hydroxypropylcellulose) (HPC)
[17] = dose: 100.0 mg/kg/injection, schedule: Q01DX009 (ip), vehicle: Klucel (hydroxypropylcellulose) (HPC)
[18] = dose: 200.0 mg/kg/injection, schedule: Q01DX009 (ip), vehicle: Klucel (hydroxypropylcellulose) (HPC)
[19] = dose: 12.5 mg/kg/injection, schedule: Q01DX009 (ip), vehicle: Klucel (hydroxypropylcellulose) (HPC)
[20] = dose: 25.0 mg/kg/injection, schedule: Q01DX009 (ip), vehicle: Klucel (hydroxypropylcellulose) (HPC)
[21] = dose: 60.0 mg/kg/injection, schedule: Q01DX005 (ip), vehicle: saline with Tween-80
[22] = dose: 120.0 mg/kg/injection, schedule: Q01DX005 (ip), vehicle: saline with Tween-80
[23] = dose: 240.0 mg/kg/injection, schedule: Q01DX005 (ip), vehicle: saline with Tween-80

COC1/C=C/OC2(C)Oc3c(C)c(O)c4c(O)c(c(/C=N/N5C(C)CN(Cc6ccc(C(C)(C)C)cc6)CC5C)c(O)c4c3C2=O)NC(=O)/C(C)=C\C=C\C(C)C(O)C(C)C(O)C(C)C(OC(C)=O)C1C (stereo unspecified)
T/C [1]: 119 % of control | T/C (dose: 25.0 mg/kg/injection, schedule: Q01DX009 (ip), vehicle: suspension in saline): 104 % of control | T/C [2]: 102 % of control and 94 % of control | T/C [3]: 108 % of control | T/C [4]: 119 % of control | T/C [5]: 100 % of control | T/C [6]: 95 % of control

COC(=O)C1C(OS(=O)(=O)O)CCC2CN3CCc4c([nH]c5ccccc45)C3CC21 (stereo unspecified)
T/C [7]: 102 % of control | T/C [8]: 105 % of control | T/C [9]: 103 % of control

CC1CCCN(c2cc3nc[nH]c(=O)c3cc2[N+](=O)[O-])C1 (stereo unspecified)
T/C [10]: 103 % of control | T/C [11]: 100 % of control | T/C [12]: 99 % of control

C1CC2CC1C13OC1C1(CC1)C1OC213 (stereo unspecified)
T/C [13]: 106 % of control and 123 % of control | T/C [14]: 109 % of control | T/C [15]: 157 % of control

Cc1cc(OC(=O)N(C)C)nc(SCC(=O)c2ccc(Cl)cc2)n1
T/C [16]: 99 % of control | T/C [17]: 103 % of control | T/C [18]: 107 % of control

CC[C@@]1(O)C[C@H](OC2CC(N(C)C)C(OC3CC4OC5CC(=O)C(C)OC5OC4C(C)O3)C(C)O2)c2c(cc3c(c2O)C(=O)c2c(O)cccc2C3=O)[C@H]1C(=O)OC (stereo partly specified)
T/C (dose: 0.12 mg/kg/injection, schedule: Q01DX009 (ip), vehicle: water): 117 % of control | T/C (dose: 0.25 mg/kg/injection, schedule: Q01DX009 (ip), vehicle: water): 115 % of control | T/C (dose: 0.5 mg/kg/injection, schedule: Q01DX009 (ip), vehicle: water): 110 % of control | T/C (dose: 1.0 mg/kg/injection, schedule: Q01DX009 (ip), vehicle: water): 110 % of control | T/C (dose: 4.0 mg/kg/injection, schedule: Q01DX009 (ip), vehicle: water): 162 % of control

NC(=O)C(=O)c1cc(Cl)c(Cl)c(Cl)c1Cl
T/C [1]: 105 % of control | T/C [2]: 99 % of control | T/C [4]: 96 % of control

C(=N\Nc1nn[nH]n1)/c1ccccc1
T/C [3]: 98 % of control | T/C [5]: 97 % of control | T/C [6]: 104 % of control

OCCCCC1COC(CC2OCC(CCCCO)O2)O1 (stereo unspecified)
T/C (dose: 50.0 mg/kg/injection, schedule: Q01DX005 (ip), vehicle: saline): 101 % of control | T/C (dose: 100.0 mg/kg/injection, schedule: Q01DX005 (ip), vehicle: saline): 100 % of control | T/C (dose: 200.0 mg/kg/injection, schedule: Q01DX005 (ip), vehicle: saline): 101 % of control

CC(C)N1C(=O)c2ccccc2S12c1ccccc1C(=O)N2C(C)C
T/C [10]: 93 % of control | T/C [11]: 90 % of control | T/C [12]: 90 % of control

c1ccc(SCc2ccc3c(c2)OCO3)cc1
T/C [13]: 107 % of control | T/C [14]: 102 % of control | T/C [15]: 100 % of control

CCOC(=O)/C=C1\CCCn2c1ncc(C(=O)OCC)c2=O
T/C [7]: 101 % of control | T/C [8]: 100 % of control | T/C [9]: 108 % of control

c1ccc2c(NCCCCNc3c4ccccc4nc4ccccc34)c3ccccc3nc2c1
T/C (dose: 0.62 mg/kg/injection, schedule: Q## X009 (ip), vehicle: lactic acid): 101 % of control | T/C (dose: 1.25 mg/kg/injection, schedule: Q## X009 (ip), vehicle: lactic acid): 102 % of control | T/C (dose: 2.5 mg/kg/injection, schedule: Q## X009 (ip), vehicle: lactic acid): 104 % of control | T/C (dose: 5.0 mg/kg/injection, schedule: Q## X009 (ip), vehicle: lactic acid): 104 % of control | T/C (dose: 10.0 mg/kg/injection, schedule: Q## X009 (ip), vehicle: lactic acid): 110 % of control

C=C(C)C1CC2(C)C(C)CC(O)CC2C(OC(=O)/C=C(/C)CC)C1O (stereo unspecified)
T/C [19]: 97 % of control | T/C [20]: 98 % of control | T/C [16]: 97 % of control | T/C [17]: 97 % of control

O=[N+]([O-])c1cc(Cl)c(Cl)cc1Cl
T/C [2]: 109 % of control | T/C [4]: 100 % of control | T/C (dose: 200.0 mg/kg/injection, schedule: Q01DX009 (ip), vehicle: saline with Tween-80): 104 % of control

CC12CC3(C)CC(C)(C1)CC(C(Cl)C(=O)NC1CCCCC1)(C2)C3 (stereo unspecified)
T/C [16]: 110 % of control | T/C [17]: 107 % of control | T/C [18]: 97 % of control

CN(N=O)C(=O)NCCNC(=O)C1OC(n2cnc3c(=O)[nH]cnc32)C(O)C1O (stereo unspecified)
T/C (dose: 100.0 mg/kg/injection, schedule: Q01DX005 (ip), vehicle: saline with Tween-80): 106 % of control | T/C (dose: 200.0 mg/kg/injection, schedule: Q01DX005 (ip), vehicle: saline with Tween-80): 109 % of control | T/C (dose: 400.0 mg/kg/injection, schedule: Q01DX005 (ip), vehicle: saline with Tween-80): 115 % of control

O=C(CCl)N1CCN(c2ccccc2)CC1
T/C [21]: 97 % of control | T/C [22]: 100 % of control | T/C [23]: 97 % of control

Cc1ccc2c(c1)CN(C)c1ccc(C)cc1CN2C
T/C [21]: 98 % of control | T/C [22]: 100 % of control | T/C [23]: 98 % of control

CCC[CH2][Sn]1([CH2]CCC)[O]C(=O)C[S]1
T/C (dose: 0.75 mg/kg/injection, schedule: Q01DX009 (ip), vehicle: saline): 100 % of control | T/C (dose: 1.5 mg/kg/injection, schedule: Q01DX009 (ip), vehicle: saline): 108 % of control | T/C (dose: 2.0 mg/kg/injection, schedule: Q01DX009 (ip), vehicle: saline with Tween-80): 115 % of control | T/C (dose: 2.0 mg/kg/injection, schedule: Q04DX003 (ip), vehicle: saline with Tween-80): 118 % of control | T/C (dose: 4.5 mg/kg/injection, schedule: Q04DX003 (ip), vehicle: saline with Tween-80): 150 % of control

c1cc2c(cc1CN1CCOCC1)CCc1cc(CN3CCOCC3)ccc1N2
T/C (dose: 15.0 mg/kg/injection, schedule: Q01DX005 (ip), vehicle: Klucel (hydroxypropylcellulose) (HPC)): 101 % of control | T/C (dose: 30.0 mg/kg/injection, schedule: Q01DX005 (ip), vehicle: Klucel (hydroxypropylcellulose) (HPC)): 100 % of control | T/C [7]: 94 % of control and 95 % of control

COc1c(Cl)c(=O)oc2ccc(Cl)cc12
T/C (dose: 6.25 mg/kg/injection, schedule: Q01DX009 (ip), vehicle: Klucel (hydroxypropylcellulose) (HPC)): 104 % of control | T/C [19]: 99 % of control | T/C [20]: 97 % of control | T/C [16]: 104 % of control

CN=C(NC)c1ccc(NC(=O)Nc2cccc(NC(=O)Nc3ccc(C(=NC)NC)cc3)c2)cc1
T/C (dose: 12.5 mg/kg/injection, schedule: Q01DX005 (ip), vehicle: saline with Tween-80): 160 % of control and 177 % of control | T/C (dose: 25.0 mg/kg/injection, schedule: Q01DX005 (ip), vehicle: saline with Tween-80): 195 % of control and 206 % of control

O=C(O)c1c[nH]c2ccc([N+](=O)[O-])cc2c1=O
T/C (dose: 0.63 mg/kg/injection, schedule: Q01DX009 (ip), vehicle: Klucel (hydroxypropylcellulose) (HPC)): 110 % of control | T/C (dose: 1.25 mg/kg/injection, schedule: Q01DX009 (ip), vehicle: Klucel (hydroxypropylcellulose) (HPC)): 94 % of control | T/C (dose: 2.5 mg/kg/injection, schedule: Q01DX009 (ip), vehicle: Klucel (hydroxypropylcellulose) (HPC)): 101 % of control | T/C (dose: 5.0 mg/kg/injection, schedule: Q01DX009 (ip), vehicle: Klucel (hydroxypropylcellulose) (HPC)): 104 % of control | T/C (dose: 10.0 mg/kg/injection, schedule: Q01DX009 (ip), vehicle: Klucel (hydroxypropylcellulose) (HPC)): 100 % of control | T/C (dose: 90.0 mg/kg/injection, schedule: Q01DX009 (ip), vehicle: Klucel (hydroxypropylcellulose) (HPC)): 86 % of control

Source: PubChem BioAssay AID330 (DTP/NCI, 2004)
